Laboratory results taken from patent publication US11932593B1, “8-(3-bromobenzylideneamino)naphthalene-1,3-disulfonic acid as an antioxidant compound” (KING FAISAL UNIVERSITY, priority 2023, dated 2024).

Assay: DPPH radical scavenging antioxidant test
Format: biochemical
Details: 517 nm; for Inhibition (radical scavenging inhibition): compound 3 μM in ethanol, 0.2 mL DPPH (0.75 mM), 30 min incubation in the dark
Method: The antioxidant properties of the 8-(3-bromobenzylideneamino)naphthalene-1,3-disulfonic acid were studied by adding 0.2 mL DPPH (0.75 mM)) to compound 8-(3-bromobenzylideneamino)naphthalene-1,3-disulfonic acid (III) (3 μM) in ethanol. After 30 min of incubation in the dark, the absorbance was read against a blank at 517 nm. Ascorbic acid (vitamin C) was used as standard antioxidants (positive control). A blank sample was prepared by 0.2 ml of DPPH in 3 ml ethanol. A negative control sample was run using ethanol instead of the sample. The radical scavenging inhibition was calculated using the following equation: […]

Compound	antioxidant potential in DPPH test compared to vitamin C (in words) (DPPH in vitro test, vitamin C as positive control)	Inhibition (radical scavenging inhibition) [%]
O=S(=O)(O)c1cc(S(=O)(=O)O)c2c(/N=C/c3cccc(Br)c3)cccc2c1 [Product III, 8-(3-bromobenzylideneamino)naphthalene-1,3-disulfonic acid]	high potential as an antioxidant compared to vitamin C	50
O=C1O[C@H]([C@@H](O)CO)C(O)=C1O [vit c, Ascorbic acid, reference compound]	–	74
